# Laboratory results published in publication PMC5622171 (Nature Communications, 2017).
# What was measured:
# [1] = tested on: CYP3A4; assay: Paclitaxel metabolism in primary human hepatocytes (LC/MS/MS); assay type: in vitro ADME; conditions: 10 µM SPA70, 1 µM PTX, 24 or 48 h
# Protocol: Calibration and quality-control samples were prepared.
# [2] = tested on: MDR1 in LS180 cells; assay: MDR1 protein levels (western blot); assay type: cell-based, human; conditions: 10 μM SPA70, 1.6 μM RIF, 72 h
# Protocol: (§1) Cells were rinsed once with cold PBS then lysed in RIPA lysis buffer (Thermo Fisher Scientific) containing protease inhibitor (Roche). Mouse liver samples were homogenized in 500 μl of cold RIPA lysis buffer in a Bullet Blender Blue homogenizer (Next Advance, Averill Park, NY). Then, 25 μg of total protein lysates were loaded onto NuPAGE 4%–12% Bis-Tris gels (Invitrogen) with NuPAGE MES SDS running buffer (Invitrogen). The proteins were transferred from the gel to a nitrocellulose membrane by using the iBlot gel-transfer system (Invitrogen). The membrane was then blocked for 1 h with Odyssey Blocking Buffer (LI-COR Biosciences, Lincoln, NE) and probed with mouse monoclonal antibodies against CYP3A4 (K03; stock concentration: 2.5 mg ml^−1, diluted 1:5000)[51], MDR1 (D-11; Cat. No. sc-55510, Santa Cruz Biotechnology, Santa Cruz, CA; stock concentration: 0.2 mg ml^−1, diluted 1:1500), hPXR (H-11; Cat. No. sc-48340, Santa Cruz Biotechnology; stock concentration: 0.2 mg ml^−1, diluted 1:400), mouse Cyp3a (Cat. No. MAB10041, Millipore, Temecula, CA; Lot No. 1957980, diluted 1:1000), or β-actin (Cat. No. A5441, Sigma; Lot No. 043M4840V, diluted 1:5000). […] The relative intensity of each protein band was then determined by normalizing the intensity of each protein band to that of actin. […]
# [3] = tested on: MDR1 in LS174T cells; assay: MDR1 protein levels (western blot); assay type: cell-based, human; conditions: 10 μM SPA70, 1.6 μM RIF, 72 h
# Protocol: as §1
# [4] = target: T1, hPXR (Homo sapiens, UniProt O75469); assay: hPXR transactivation assay using transient transfection in LS180 cells; assay type: cell-based; design: expressed in transfected cells; conditions: SPA70 10 μM, SJB7 4 μM
# T1 sequence (O75469 1-434): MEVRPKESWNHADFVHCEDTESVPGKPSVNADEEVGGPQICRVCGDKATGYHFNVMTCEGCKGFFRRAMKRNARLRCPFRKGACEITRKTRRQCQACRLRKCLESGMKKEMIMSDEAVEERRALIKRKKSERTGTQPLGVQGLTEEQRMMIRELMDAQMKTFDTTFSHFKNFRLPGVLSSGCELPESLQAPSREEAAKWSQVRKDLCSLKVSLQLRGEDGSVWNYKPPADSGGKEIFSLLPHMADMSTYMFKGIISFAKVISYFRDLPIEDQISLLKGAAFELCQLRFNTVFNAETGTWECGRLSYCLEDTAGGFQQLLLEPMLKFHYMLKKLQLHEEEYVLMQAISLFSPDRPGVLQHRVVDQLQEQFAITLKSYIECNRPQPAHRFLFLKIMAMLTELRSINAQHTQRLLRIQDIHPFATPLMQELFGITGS
# Protocol: The hPXR transactivation assay using transient transfection (agonist and antagonist modes) were performed as described previously. Briefly, LS180 cells were co-transfected with pGL3-CYP3A4-luc (CYP3A4-luciferase reporter) and pRL-TK (as a transfection control), together with pcDNA3, pcDNA3-hPXR, pcDNA3-hPXRM425A, or pcDNA3-hPXRF429A, by using FuGENE 6 (Roche). The pcDNA3-hPXR mutants (pcDNA3-hPXRM425A and pcDNA3-hPXRF429A) were obtained from Codex BioSolutions, Inc. (Gaithersburg, MD). Mutations were verified through nucleotide sequencing, using primers shown in Supplementary Table 3.
# [5] = tested on: CYP3A4; assay: CYP3A4 protein levels in primary human hepatocytes (western blot); assay type: cell-based
# Protocol: as §1
# [6] = target: T1, hPXR; assay: hPXR transactivation assay, HepG2 stable cell line, antagonistic mode; conditions: SPA70 concentration of 10 μM; all rifampicin concentrations tested
# [7] = tested on: LS180 cells (parental); assay: CellTiter-Glo cytotoxicity assay; conditions: 10 µM SPA70
# [8] = tested on: Hepa 1-6 cells; assay: One- and 3-day cytotoxicity assay; assay type: cell-based, mouse; conditions: Hepa 1-6, one- and 3-day
# Protocol: After the plated had been incubated for 24 or 72 h at 37 °C, the cytotoxicity was determined using a CellTiter-Glo luminescent cell viability assay (Promega). […] The final DMSO concentration was 0.5% for all wells.
# [9] = tested on: hPXR; assay: Liver Cyp3a11 mRNA and protein in hPXR transgenic mice; assay type: in vivo, mouse; conditions: hPXR humanized transgenic mice, SPA70 200 mg kg−1, RIF 10 mg kg−1, 72 h
# Protocol: Cells were rinsed once with cold PBS then lysed in RIPA lysis buffer (Thermo Fisher Scientific) containing protease inhibitor (Roche). Mouse liver samples were homogenized in 500 μl of cold RIPA lysis buffer in a Bullet Blender Blue homogenizer (Next Advance, Averill Park, NY). Then, 25 μg of total protein lysates were loaded onto NuPAGE 4%–12% Bis-Tris gels (Invitrogen) with NuPAGE MES SDS running buffer (Invitrogen). The proteins were transferred from the gel to a nitrocellulose membrane by using the iBlot gel-transfer system (Invitrogen). […] The relative intensity of each protein band was then determined by normalizing the intensity of each protein band to that of actin. […]
# The method used for RNA extraction and polymerase chain reaction with reverse transcription (RT-PCR) has been described previously. […] Quantitative RT-PCR was performed in accordance with the manufacturer’s protocol by using TaqMan gene expression assays (Thermo Fisher Scientific) specific for the hPXR and Cyp3a11 genes, with GAPDH or 18s rRNA as the reference gene, in an ABI 7900HT Fast Real-Time PCR System (Thermo Fisher Scientific). […] The comparative threshold (Ct) method was used for the relative quantification of gene expression by the following formulae: ΔCt = Ct (test gene) − Ct (GAPDH); ΔΔCt (test gene) = ΔCt (test gene in treatment group) − ΔCt (test gene in vehicle control group). […]
structure (smiles),measurement,setting,value
COc1ccc(OC)c(-n2nnc(S(=O)(=O)c3ccc(C(C)(C)C)cc3)c2C)c1 [SPA70],Effect on metabolism of paclitaxel to 3′-p-hydroxypaclitaxel or 6α-hydroxypaclitaxel,[1],substantially blocked
same,Effect on rifampicin induction of MDR1,[2],able to block rifampicin induction of MDR1
same,Effect on rifampicin induction of MDR1,[3],able to block rifampicin induction of MDR1
same,Effect on activation of hPXR by SJB7,[4],effectively block the activation of hPXR
same,Effect on CYP3A4 induction by SR12813 and T090137,"[5]; 2.5 μM SPA70, 0.1 μM SR12813 or 0.03 μM T090137, 48 h",able to block the CYP3A4-inducing effect
same,Effect on CYP3A4 induction by rifampicin,"[5]; 2.5 μM SPA70, 1 μM rifampicin, 48 h",substantially blocked
same,Effect on rifampicin-induced hPXR activation,[6],completely blocked the activity of rifampicin
same,Toxicity of SPA70 alone in LS180 cells,[7],marginally toxic
same,Cytotoxicity,[8],marginal cytotoxicity
same,Effect on rifampicin-induced expression of Cyp3a11 (mRNA and protein),[9],effectively blocked the rifampicin-induced expression of Cyp3a11
